Assays:
Assay in all cases: CD
[1] = system: L1 (random DNA sequence) (DNA, single strand) GAGAGTCAATCGTCTATTCGCATGAGAATTCCATTCACCGTAAG; details: 300 mM NaCl, 5 mM MgCl2; 20 mM Tris-HCl; 5 μM DNA, 1 mM ATP; nonspecific peak shift 277 to 280 nm
[2] = system: B-linker (B1/B2 assembly) (DNA, aptamer) GAGAGTCAATCGACCTGGGGGAGTATTGCGGAGGAAGGTACGCATTCGCTATA/GAGAGTCAATCGTATAGCGAATGCGT; details: 300 mM NaCl, 5 mM MgCl2; 20 mM Tris-HCl; 5 μM DNA, 1 mM ATP; peak shift 273 to 279 nm; CD alone not conclusive
[3] = system: B1 (DNA, aptamer) GAGAGTCAATCGACCTGGGGGAGTATTGCGGAGGAAGGTACGCATTCGCTATA; details: 300 mM NaCl, 5 mM MgCl2; 20 mM Tris-HCl; 5 μM DNA, 1 mM ATP, room temperature; peak shift 272 to 277 nm

Nc1ncnc2c1ncn2[C@@H]1O[C@H](COP(=O)(O)OP(=O)(O)OP(=O)(O)O)[C@@H](O)[C@H]1O
binding [1]: no | binding [2]: yes | binding [3]: yes
